Earlier results, collected in patent US20180305742A1, “USE OF ESTROGENIC COMPOUNDS TO […] BACTERIAL COMPOSITION OF VAGINAL COMMUNITIES” (University of Idaho, priority 2017, published 2018).

System: estrogen receptor

In the case of `C[C@]12CC[C@@H]3c4ccc(O)cc4CC[C@H]3[C@@H]1C[C@@H](O)[C@@H]2O` [Estriol, estriol], the “potency relative to estradiol” value (as potent as estradiol) is listed as 8% and the “potency relative to estrone” value (as potent as estrone) is listed as 14%.
